test system: Abutilon theophrasti; assay: Post-emergence test experiment (Table 3, 1000 g/ha); format: in vivo; conditions: post-emergence spray, after 3 weeks, fresh weight inhibition
From the text: (§1) The activity level standard of harmful plants destruction (i. e. growth inhibition rate) is as follows: • Level 5: the growth inhibition rate is greater than 85%; • Level 4: the growth inhibition rate is equal to or greater than 60% and less than 85%; • Level 3: the growth inhibition rate is equal to or greater than 40% and less than 60%; • Level 2: the growth inhibition rate is equal to or greater than 20% and less than 40%; • Level 1: the growth inhibition rate is equal to or greater than 5% and less than 20%; • Level 0: the growth inhibition rate is less than 5%;
(§2) The above described growth inhibition rate is fresh weight inhibition rate.
(§3) Post-emergence test experiment: Monocotyledonous and dicotyledonous weed seeds and main crop seeds (i. e. wheat, corn, rice, soybean, cotton, oilseed, millet and sorghum.) were put into a plastic pot loaded with soil. Then covered with 0.5-2 cm soil, the seeds were allowed to grow in good greenhouse environment. The test plants were treated at 2-3 leaf stage 2 weeks after sowing. The test compounds of the invention were dissolved with acetone respectively, then added with tween-80, and using 1.5 liters per hectare of an emulsible concentrate of methyl oleate as a synergist, and diluted by certain amount of water to certain concentration. The solution was sprayed to the plants with a sprayer. Then the plants were cultured for 3 weeks in the greenhouse, and the experiment result of weed controlling effect after 3 weeks was listed in tables 3-4.

Structure (SMILES) | Activity level (growth inhibition rate) Abutilon theophrasti
CSC(=O)C(Oc1nc(F)c(Cl)c(N)c1Cl)C(C)C (stereo not drawn) [Compound 27] | 5 (Level 5: the growth inhibition rate is greater than 85%)
CSC(=O)C(CF)Oc1nc(F)c(Cl)c(N)c1Cl (stereo not drawn) [Compound 38] | 5 (Level 5: the growth inhibition rate is greater than 85%)
CSC(=O)C(Oc1nc(F)c(Cl)c(N)c1Cl)c1ccco1 (stereo not drawn) [Compound 54] | 5 (Level 5: the growth inhibition rate is greater than 85%)
CSC(=O)C(Oc1nc(F)c(Cl)c(N)c1Cl)c1cccc(Cl)c1 (stereo not drawn) [Compound 61] | 5 (Level 5: the growth inhibition rate is greater than 85%)
CSC(=O)C(F)Oc1nc(F)c(Cl)c(N)c1Cl (stereo not drawn) [Compound 34] | 5 (Level 5: the growth inhibition rate is greater than 85%)
CCCC(Oc1nc(F)c(Cl)c(N)c1Cl)C(=O)SC (stereo not drawn) [Compound 26] | 5 (Level 5: the growth inhibition rate is greater than 85%)
CSC(=O)C(Cc1ccccc1)Oc1nc(F)c(Cl)c(N)c1Cl (stereo not drawn) [Compound 126] | 5 (Level 5: the growth inhibition rate is greater than 85%)
CSC(=O)C(C#N)Oc1nc(F)c(Cl)c(N)c1Cl (stereo not drawn) [Compound 43] | 5 (Level 5: the growth inhibition rate is greater than 85%)
COC(Oc1nc(F)c(Cl)c(N)c1Cl)C(=O)SC (stereo not drawn) [Compound 50] | 5 (Level 5: the growth inhibition rate is greater than 85%)
CCC(Oc1nc(F)c(Cl)c(N)c1Cl)C(=O)SC (stereo not drawn) [Compound 25] | 5 (Level 5: the growth inhibition rate is greater than 85%)

test system: Monochoria vaginalis; assay: as above; format: in vivo; conditions: post-emergence spray, after 3 weeks, fresh weight inhibition
From the text: as §1, §2, §3

Structure (SMILES) | Activity level (growth inhibition rate) Monochoria Vaginalis
CSC(=O)C(Oc1nc(F)c(Cl)c(N)c1Cl)C(C)C (stereo not drawn) [Compound 27] | 5 (Level 5: the growth inhibition rate is greater than 85%)
CSC(=O)C(CF)Oc1nc(F)c(Cl)c(N)c1Cl (stereo not drawn) [Compound 38] | 5 (Level 5: the growth inhibition rate is greater than 85%)
CSC(=O)C(Oc1nc(F)c(Cl)c(N)c1Cl)c1ccco1 (stereo not drawn) [Compound 54] | 5 (Level 5: the growth inhibition rate is greater than 85%)
CSC(=O)C(Oc1nc(F)c(Cl)c(N)c1Cl)c1cccc(Cl)c1 (stereo not drawn) [Compound 61] | 5 (Level 5: the growth inhibition rate is greater than 85%)
CSC(=O)C(F)Oc1nc(F)c(Cl)c(N)c1Cl (stereo not drawn) [Compound 34] | 5 (Level 5: the growth inhibition rate is greater than 85%)
CCCC(Oc1nc(F)c(Cl)c(N)c1Cl)C(=O)SC (stereo not drawn) [Compound 26] | 5 (Level 5: the growth inhibition rate is greater than 85%)
CSC(=O)C(Cc1ccccc1)Oc1nc(F)c(Cl)c(N)c1Cl (stereo not drawn) [Compound 126] | 5 (Level 5: the growth inhibition rate is greater than 85%)
CSC(=O)C(C#N)Oc1nc(F)c(Cl)c(N)c1Cl (stereo not drawn) [Compound 43] | 5 (Level 5: the growth inhibition rate is greater than 85%)
COC(Oc1nc(F)c(Cl)c(N)c1Cl)C(=O)SC (stereo not drawn) [Compound 50] | 5 (Level 5: the growth inhibition rate is greater than 85%)
CCC(Oc1nc(F)c(Cl)c(N)c1Cl)C(=O)SC (stereo not drawn) [Compound 25] | 5 (Level 5: the growth inhibition rate is greater than 85%)

test system: Galium spurium; assay: as above; format: in vivo; conditions: post-emergence spray, after 3 weeks, fresh weight inhibition
From the text: as §1, §2, §3

Structure (SMILES) | Activity level (growth inhibition rate) Galium spurium
CSC(=O)C(Oc1nc(F)c(Cl)c(N)c1Cl)C(C)C (stereo not drawn) [Compound 27] | 5 (Level 5: the growth inhibition rate is greater than 85%)
CSC(=O)C(CF)Oc1nc(F)c(Cl)c(N)c1Cl (stereo not drawn) [Compound 38] | 5 (Level 5: the growth inhibition rate is greater than 85%)
CSC(=O)C(Oc1nc(F)c(Cl)c(N)c1Cl)c1ccco1 (stereo not drawn) [Compound 54] | 5 (Level 5: the growth inhibition rate is greater than 85%)
CSC(=O)C(Oc1nc(F)c(Cl)c(N)c1Cl)c1cccc(Cl)c1 (stereo not drawn) [Compound 61] | 5 (Level 5: the growth inhibition rate is greater than 85%)
CSC(=O)C(F)Oc1nc(F)c(Cl)c(N)c1Cl (stereo not drawn) [Compound 34] | 5 (Level 5: the growth inhibition rate is greater than 85%)
CCCC(Oc1nc(F)c(Cl)c(N)c1Cl)C(=O)SC (stereo not drawn) [Compound 26] | 5 (Level 5: the growth inhibition rate is greater than 85%)
CSC(=O)C(Cc1ccccc1)Oc1nc(F)c(Cl)c(N)c1Cl (stereo not drawn) [Compound 126] | 5 (Level 5: the growth inhibition rate is greater than 85%)
CSC(=O)C(C#N)Oc1nc(F)c(Cl)c(N)c1Cl (stereo not drawn) [Compound 43] | 5 (Level 5: the growth inhibition rate is greater than 85%)
COC(Oc1nc(F)c(Cl)c(N)c1Cl)C(=O)SC (stereo not drawn) [Compound 50] | 5 (Level 5: the growth inhibition rate is greater than 85%)
CCC(Oc1nc(F)c(Cl)c(N)c1Cl)C(=O)SC (stereo not drawn) [Compound 25] | 5 (Level 5: the growth inhibition rate is greater than 85%)

— patent US12391648B2, “Pyridyloxy thioester derivative and preparation method therefor, herbicidal composition, and application” (Qingdao Kingagroot Chemical Compound Co., Ltd., priority 2018, dated 2025)
